The results in this text go back to patent US20250115581A1, “SUBSTITUTED PIPERIDINES AS CK1A DEGRADERS” (Monte Rosa Therapeutics, Inc., priority 2022, published 2025).

The target in assay [1] is T1, CK1α (Homo sapiens, UniProt P48729+Q96SW2).
T1 construct: HEK293 clonal lines with CRISPR KI HiBiT tag on CSNK1A1; host or cells: HEK293 clonal line, CRISPR knock-in HiBiT at the CSNK1A1 locus, stably expressing LgBiT
As to the kind of experiment: CK1α NanoBit Assay (HiBiT-tagged CSNK1A1 in HEK293 cells, luminescence). Type of assay: cell-based. Conditions: 24 h. As for the experimental part: HEK293 clonal lines with CRISPR KI HiBiT tag on CSNK1A1 and stably expressing LgBiT protein were obtained from Promega (Madison, WI). Cells were plated at 5000 cells per well using Multiflo (BioTek) in 384-well white solid bottom plates (Corning, 3570BC) in 25 μl volume in DMEM media (DMEM, high glucose, HEPES, no phenol red (ThermoFisher Scientific, 21063029)) containing 10% FBS (Corning, 35-075-CV), 1% Penicillin/Streptomycin ((ThermoFisher Scientific, 15140-122), and 0.2% Endurazine (Nano-Glo Endurazine Live Cell Substrate (Promega, N2571)). Cells were incubated for 16 hours at 37° C., 5% CO2. Depending on experiment 25 or 75 nL of a compound at 10 mM were added into the plate using an Echo® 650 liquid handler (Labcyte) to achieve final concentration of 10 or 30 μM in wells. Cells were incubated at 37° C., 5% CO2 for 24 hours and then signal was read on a Pherastar FSX using “LUM plus” optic module.
Data analysis was performed in Scinamic (Scinamic, Cambridge, MA). Luminescence response (R) was calculated by the formula: response=100*(S−N)/(P−N) where S is the signal of the well, N and P the mean negative and positive control values respectively of the same plate. The luminescence response was then fitted in Scinamic using a 3-parameter agonist logistic fit (hillslope=1, EC50>0, top/bottom unconstrained).
DC50 data are reported in Table 2 for compounds in Table 1. In Table 2 below, According to the code, A represents a DC50 value of ≤0.1 μM, B represents a DC50 value >0.1 μM and ≤1 μM, C represents an DC50 value >1 μM.

For assay [2], the target named is CRBN/DDB1 (Homo sapiens, UniProt Q96SW2). The assay can be described thus: HTRF binding assay (displacement of Cy5-thalidomide probe from CRBN/DDB1). Conditions: CRBN/DDB1 2.5 nM, Cy5-Thalidomide 100 nM, 30 min; geometric mean; read-out: HTRF_Thali_Disp_DR_geo_IC50. An excerpt:
Binding of test compounds to CRBN/DDB1 was monitored in an HTRF assay using 1-[5-({2-[2-(2-{[2-(2,6-dioxopiperidin-3-yl)-1,3-dioxo-2,3-dihydro-1H-isoindol-4-yl]oxy}acetamido)ethoxy]ethyl}carbamoyl)pentyl]-3,3-dimethyl-2-[(1E,3E)-5-[(2E)-1,3,3-trimethyl-5-sulfo-2,3-dihydro-1H-indol-2-ylidene]penta-1,3-dien-1-yl]-3H-indol-1-ium-5-sulfonate as a fluorescent probe. In this assay, compounds displace the fluorescently labeled thalidomide-based probe bound to CRBN and fluorescence is monitored with increasing compound concentration. Assays were conducted in Greiner white 384 well HiBase plates (Cat. No 784075-25) in 10 μL total volume. A one pot detection solution of CRBN/DDB1 (2.5 nM), anti-His Terbium Cryptate Gold (1×, PerkinElmer Cat. #: 61HI2TLB), and Cy5-Thalidomide (100 nM, Tenova Cat.: T52461) was prepared in 20 mM HEPES, 20 mM NaCl, 0.2 mM TCEP, 0.2 mM EDTA, and 0.005% Tween20 was dispensed to each assay plate. Test compounds were stored in dry, ambient temperatures at 10 mM. A 10-point, 1:3 dilution series was prepared from 10 mM stock concentrations in Echo-compatible LDV plates. 10 nL of each compound dilution series was dispensed into assays wells using an Echo 650 (Labcyte inc. USA). 10 nL of 10 mM lenalidomide (Selleckchem Cat no. S1029) was transferred into the active-control wells for the assay and 10 nL of DMSO was transferred into the negative control wells. The assay was then allowed to incubate for 30 min at ambient temperature after transferring the test compounds. Plate measurements were taken on a Pherastar FSX (BMG Labtech, Germany) using the HTRF Red filter (Ex. 337 nm, em1: 620 nm, em2: 665 nm) (Flashes: 50, Integration time: 60-400 μs, Z-height: 10 mm, Ratio-multiplier: 10,000). Analysis, HTRF ratio and IC50 values were derived using KNIME analytics (KNIME Zurich) transformation and fitting within Collaborative Drug Discovery (Collaborative Drug Discovery USA) using a 4-parameter logistic fit. HTRF ratio calculation was performed using the following formula: […]
where em665 nm represents the measured emission at 665 nm upon excitation at 337 nm and em620 nm the measured emission at 620 nm upon excitation at 337 nm. The 4 parameter logistic fitting model was performed using the following formula: […]
where Y represents the HTRF ratio response (as defined previously), X the compound concentration in μM, Ymin the minimum response plateau, Ymax the maximum response plateau, IC50 the concentration of […] that gives a response half way between Ymin and Ymax and HillSlope the steepness of the family of curves. No fitting model constraints was applied on Ymin, or Ymax whilst IC50>0 and −0.5>HillSlope>−3 Cheng-Prusoff transformation
Ki values were derived from the geometric mean of the IC50 values using the Cheng-Prusoff transformation:
where [L] represents the concentration of fluorescent probe in […], Kd the affinity (binding constant) of the fluorescent probe in units of μM and IC50 the concentration of agonist that gives a response halfway between Ymin and Ymax (as described in 1.2.1)
Analysis and IC50 values were derived using KNIME analytics (KNIME, Zurich) transformation and fitting within Collaborative Drug Discovery (Collaborative Drug Discovery, USA) as described in 1.2.1. Ki values were derived from the geometric mean of the IC50 values using the Cheng-Prusoff transformation as described in 2.2.2. Data was visualized in GraphPad Prism 8.1.2 (GraphPad, USA) and reported as mean and standard deviation. Microsoft Office Excel 2012 (Redmond, WA) was used for calculation of mean and standard deviation.
IC50 data are reported in Table 3 for compounds in Table 1. In Table 3 below, According to the code, A represents a IC50 value of ≤0.1 μM, B represents a IC50 value >0.1 μM and ≤1 μM, C represents an IC50 value >1 μM.
For orientation: TR-FRET usually uses a lanthanide donor and a delayed reading to cut background.

Chain of CRBN/DDB1 (Q96SW2 whole entry): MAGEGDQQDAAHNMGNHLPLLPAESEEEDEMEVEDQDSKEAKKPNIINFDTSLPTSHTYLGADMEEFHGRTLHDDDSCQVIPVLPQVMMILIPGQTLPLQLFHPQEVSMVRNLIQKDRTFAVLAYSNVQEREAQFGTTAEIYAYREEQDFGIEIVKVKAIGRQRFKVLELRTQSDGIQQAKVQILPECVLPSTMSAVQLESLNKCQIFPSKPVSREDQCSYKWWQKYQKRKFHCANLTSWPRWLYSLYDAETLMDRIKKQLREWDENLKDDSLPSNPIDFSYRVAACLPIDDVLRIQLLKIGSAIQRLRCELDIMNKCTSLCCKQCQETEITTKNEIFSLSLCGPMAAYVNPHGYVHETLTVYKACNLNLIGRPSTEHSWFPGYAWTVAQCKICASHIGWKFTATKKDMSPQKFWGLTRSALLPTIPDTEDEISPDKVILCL
Chain of CRBN/DDB1 (Q16531 whole entry partner): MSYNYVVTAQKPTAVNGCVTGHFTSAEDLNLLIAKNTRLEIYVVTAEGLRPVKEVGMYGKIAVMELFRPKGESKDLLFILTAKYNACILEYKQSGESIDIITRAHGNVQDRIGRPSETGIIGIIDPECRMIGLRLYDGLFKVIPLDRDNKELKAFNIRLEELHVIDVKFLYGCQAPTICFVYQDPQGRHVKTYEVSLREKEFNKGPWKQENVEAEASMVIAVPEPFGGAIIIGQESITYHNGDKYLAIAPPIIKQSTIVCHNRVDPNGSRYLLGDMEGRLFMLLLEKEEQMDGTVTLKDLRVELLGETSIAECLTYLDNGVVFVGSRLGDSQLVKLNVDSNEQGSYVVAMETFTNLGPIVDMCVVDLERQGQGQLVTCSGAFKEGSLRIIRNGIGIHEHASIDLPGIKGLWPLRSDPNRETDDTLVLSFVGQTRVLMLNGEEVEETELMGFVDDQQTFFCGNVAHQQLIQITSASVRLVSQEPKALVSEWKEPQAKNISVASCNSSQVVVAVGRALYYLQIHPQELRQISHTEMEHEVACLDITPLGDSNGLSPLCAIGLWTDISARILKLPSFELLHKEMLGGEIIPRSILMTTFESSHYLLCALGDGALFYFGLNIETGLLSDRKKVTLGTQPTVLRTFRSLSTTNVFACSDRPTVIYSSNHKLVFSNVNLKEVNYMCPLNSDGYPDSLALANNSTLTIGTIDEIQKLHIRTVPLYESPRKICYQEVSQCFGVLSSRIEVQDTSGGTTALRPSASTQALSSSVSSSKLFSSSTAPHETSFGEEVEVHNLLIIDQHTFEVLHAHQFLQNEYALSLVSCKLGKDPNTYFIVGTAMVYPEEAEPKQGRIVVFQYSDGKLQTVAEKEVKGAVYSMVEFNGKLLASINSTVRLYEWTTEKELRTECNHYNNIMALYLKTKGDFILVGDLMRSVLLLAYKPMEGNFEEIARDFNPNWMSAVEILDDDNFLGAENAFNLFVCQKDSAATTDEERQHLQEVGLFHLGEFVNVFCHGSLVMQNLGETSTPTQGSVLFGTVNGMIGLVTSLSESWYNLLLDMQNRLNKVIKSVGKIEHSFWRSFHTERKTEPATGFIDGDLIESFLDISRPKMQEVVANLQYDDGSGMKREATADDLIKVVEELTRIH
T1 sequence (P48729 whole entry): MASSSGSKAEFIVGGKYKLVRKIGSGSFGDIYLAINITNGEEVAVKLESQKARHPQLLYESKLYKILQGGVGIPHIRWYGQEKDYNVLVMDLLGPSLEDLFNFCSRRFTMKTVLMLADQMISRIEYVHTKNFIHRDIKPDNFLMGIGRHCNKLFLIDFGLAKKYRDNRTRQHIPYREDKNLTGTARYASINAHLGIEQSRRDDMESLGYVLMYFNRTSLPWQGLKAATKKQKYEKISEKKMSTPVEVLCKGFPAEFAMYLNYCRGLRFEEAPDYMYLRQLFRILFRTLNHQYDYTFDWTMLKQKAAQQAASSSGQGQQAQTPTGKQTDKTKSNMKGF
T1 sequence (Q96SW2 whole entry): as the sequence (Q96SW2 whole entry) above
T1 sequence (Q16531 whole entry partner): as the sequence (Q16531 whole entry partner) above

Turning to `COc1ccc(-n2ccn(-c3ccc4c(c3)CN(C3CCC(=O)NC3=O)C4=O)c2=O)cc1` (stereo not shown) [Compound 102, 3-(5-(3-(4-methoxyphenyl)-2-oxo-2,3-dihydro-1H-imidazol-1-yl)-1-oxoisoindolin-2-yl) piperidine-2,6-dione], the DC50 in assay [1] is more than 1 µM. Further, the IC50 in assay [2] is 100 to 1000 nM.

In the case of `Cc1cc(N2CCN(c3ccc4c(c3)CN(C3CCC(=O)NC3=O)C4=O)C2=O)ccn1` (stereo not shown) [Compound 103, 3-(5-(3-(2-methylpyridin-4-yl)-2-oxoimidazolidin-1-yl)-1-oxoisoindolin-2-yl)piperidine-2,6-dione], the DC50 in assay [1] was more than 1 µM.

As for `O=C1CCC(N2Cc3cc(N4CCN(c5ccccn5)C4=O)ccc3C2=O)C(=O)N1` (stereo not shown) [Compound 105, 3-(1-oxo-5-(2-oxo-3-(pyridin-2-yl)imidazolidin-1-yl)isoindolin-2-yl)piperidine-2,6-dione], the DC50 in assay [1] was not above 0.1 µM. Moreover, the IC50 in assay [2] was more than 1000 nM.

Regarding `O=C1CCC(N2Cc3cc(N4C[C@@H](C(F)(F)F)N(c5ccccc5)C4=O)ccc3C2=O)C(=O)N1` (stereo partly drawn) [Compound 106, 3-(1-oxo-5-((S)-2-oxo-3-phenyl-4-(trifluoromethyl)imidazolidin-1-yl)isoindolin-2-yl)piperidine-2,6-dione], the DC50 in assay [1] was in the range of 0.1 to 1 µM. Further, the IC50 in assay [2] is 100 to 1000 nM.

Turning to `O=C1CCC(N2Cc3cc(N4C[C@H](C(F)(F)F)N(c5ccccc5)C4=O)ccc3C2=O)C(=O)N1` (stereo partly drawn) [Compound 108, 3-(1-oxo-5-((R)-2-oxo-3-phenyl-4-(trifluoromethyl)imidazolidin-1-yl)isoindolin-2-yl)piperidine-2,6-dione], the DC50 in assay [1] is more than 1 µM. Besides, the IC50 in assay [2] lay in the range of 100 to 1000 nM.

Regarding `C[C@H]1CN(c2ccc3c(c2)CN(C2CCC(=O)NC2=O)C3=O)C(=O)N1c1ccccc1` (stereo partly drawn) [Compound 109, 3-(5-((S)-4-methyl-2-oxo-3-phenylimidazolidin-1-yl)-1-oxoisoindolin-2-yl) piperidine-2,6-dione], the DC50 in assay [1] is not above 0.1 µM. The IC50 in assay [2] fell in the range of 100 to 1000 nM.

In assay [1], `Cc1cccc(N2CCN(c3ccc4c(c3)CN(C3CCC(=O)NC3=O)C4=O)C2=O)c1` (stereo not shown) [Compound 110, 3-(1-oxo-5-(2-oxo-3-(m-tolyl)imidazolidin-1-yl)isoindolin-2-yl)piperidine-2,6-dione] had a DC50 not above 0.1 µM. The IC50 in assay [2] fell in the range of 100 to 1000 nM.

Compound `O=C1CCC(N2Cc3cc(N4CCN(c5ccc(C(F)(F)F)cc5)C4=O)ccc3C2=O)C(=O)N1` (stereo not shown) [Compound 112, 3-(1-oxo-5-(2-oxo-3-(4-(trifluoromethyl)phenyl)imidazolidin-1-yl)isoindolin-2-yl)piperidine-2,6-dione] came in with a DC50 in assay [1] not above 0.1 µM. The IC50 in assay [2] is 100 to 1000 nM.

Regarding `CC1C(C)N(c2ccc3c(c2)CN(C2CCC(=O)NC2=O)C3=O)C(=O)N1c1ccccc1` (stereo not shown) [Compound 113, 3-(5-(4,5-dimethyl-2-oxo-3-phenylimidazolidin-1-yl)-1-oxoisoindolin-2-yl)piperidine-2,6-dione], the DC50 in assay [1] is more than 1 µM. In addition, the IC50 in assay [2] lay in the range of 100 to 1000 nM.

In the case of `O=C1CCC(N2Cc3cc(N4CCN(c5ccc(Cl)cc5)C4=O)ccc3C2=O)C(=O)N1` (stereo not shown) [Compound 114], in assay [1], the DC50 is not above 0.1 µM. Moreover, the IC50 in assay [2] fell in the range of 100 to 1000 nM.

In assay [1], `N#Cc1ccc(N2CCN(c3ccc4c(c3)CN(C3CCC(=O)NC3=O)C4=O)C2=O)cc1` (stereo not shown) [Compound 115] registered a DC50 of 0.1 to 1 µM. The IC50 in assay [2] was 100 to 1000 nM.

As for `O=C1CCC(N2Cc3cc(N4CCN(c5cccc(C(F)(F)F)c5)C4=O)ccc3C2=O)C(=O)N1` (stereo not shown) [Compound 116, 3-(1-oxo-5-(2-oxo-3-(3-(trifluoromethyl)phenyl)imidazolidin-1-yl)isoindolin-2-yl)piperidine-2,6-dione], the DC50 in assay [1] is not above 0.1 µM. For the same compound, the IC50 in assay [2] is 100 to 1000 nM.

On to `CC1CN(c2ccccc2)C(=O)N1c1ccc2c(c1)CN(C1CCC(=O)NC1=O)C2=O` (stereo not shown) [Compound 117, 3-(5-(5-methyl-2-oxo-3-phenylimidazolidin-1-yl)-1-oxoisoindolin-2-yl)piperidine-2,6-dione], for which the DC50 in assay [1] lay within 0.1 to 1 µM. Besides, the IC50 in assay [2] lay in the range of 100 to 1000 nM.

The compound `O=C1CCC(N2Cc3cc(N4CCN(c5cccc(Cl)c5)C4=O)ccc3C2=O)C(=O)N1` (stereo not shown) [Compound 118, 3-(5-(3-(3-chlorophenyl)-2-oxoimidazolidin-1-yl)-1-oxoisoindolin-2-yl)piperidine-2,6-dione] came in with a DC50 in assay [1] not above 0.1 µM. The IC50 in assay [2] was in the range of 100 to 1000 nM.

In assay [1], `CC(C)c1cccc(N2CCN(c3ccc4c(c3)CN(C3CCC(=O)NC3=O)C4=O)C2=O)c1` (stereo not shown) [Compound 119, 3-(5-(3-(3-isopropylphenyl)-2-oxoimidazolidin-1-yl)-1-oxoisoindolin-2-yl)piperidine-2,6-dione] returned a DC50 not above 0.1 µM. Moreover, the IC50 in assay [2] was 100 to 1000 nM.

With `CC(C)c1ccc(N2CCN(c3ccc4c(c3)CN(C3CCC(=O)NC3=O)C4=O)C2=O)cc1` (stereo not shown) [Compound 120, 3-(5-(3-(4-isopropylphenyl)-2-oxoimidazolidin-1-yl)-1-oxoisoindolin-2-yl)piperidine-2,6-dione], the DC50 in assay [1] was not above 0.1 µM. In addition, the IC50 in assay [2] was 100 to 1000 nM.

`Cc1ccc(N2CCN(c3ccc4c(c3)CN(C3CCC(=O)NC3=O)C4=O)C2=O)nc1` (stereo not shown) [Compound 141, 3-(5-(3-(5-methylpyridin-2-yl)-2-oxoimidazolidin-1-yl)-1-oxoisoindolin-2-yl)piperidine-2,6-dione] gave a DC50 in assay [1] not above 0.1 µM.

For `O=C1CCC(N2Cc3cc(N4CCN(c5ccc(C6(C(F)(F)F)CC6)cc5)C4=O)ccc3C2=O)C(=O)N1` (stereo not shown) [Compound 147, 3-(1-oxo-5-(2-oxo-3-(4-(1-(trifluoromethyl)cyclopropyl)phenyl)imidazolidin-1-yl)isoindolin-2-yl)piperidine-2,6-dione], in assay [1], the DC50 was not above 0.1 µM.

`N#Cc1cccc(N2CCN(c3ccc4c(c3)CN(C3CCC(=O)NC3=O)C4=O)C2=O)c1` (stereo not shown) [Compound 148, 3-(3-(2-(2,6-dioxopiperidin-3-yl)-1-oxoisoindolin-5-yl)-2-oxoimidazolidin-1-yl)benzonitrile] came in with a DC50 in assay [1] not above 0.1 µM.
